According to patent US7989494B2, “Polymorphs of N-hydroxy-3-[4-[[[2-(2-methyl-1H-indol-3-yl)ethyl]amino]methyl]phenyl]-2E-2-propenamide” (Novartis AG, priority 2006, dated 2011):
≈ marks a conversion by molar mass, not a printed value. Where a name gives a salt, the structure may show the parent alone. Read-outs that look alike come from different tables or passages of the source. Blank lines part the entries; values can stand above or below the compound they belong to.

Assays:
Format in all cases: physicochemical
[1] = Equilibration in solvents and aqueous media, solid form by XRPD
[2] = Hygroscopicity (descriptive)
[3] = Sorption-desorption isotherms, VTI humidity balance; conditions: for Sorption: 25° C., first sorption cycle; for Desorption: in % (unit assumed)
Experimental: Sorption-desorption isotherms were recorded by a VTI humidity balance. The salts of (N-hydroxy-3-[4-[[[2-(2-methyl-1H-indol-3-yl)ethyl]amino]methyl]phenyl]-2E-2-propenamide were first subjected to a drying step (25° C., r.h. below 2%, 2 hours) and then to a sorption-desorption-sorption sequence, with each RH % step retained for 3 hours. The free base was kept below 2% r.h. for several hours, and thus was completely dehydrated after the drying step. Only the data of the first sorption cycle are given in the table, since, in all cases, the two sorption cycles were very similar.

[4] = Solubility in organic solvents; conditions: for solubility: organic solvent or mixture
[5] = Intrinsic dissolution
[6] = Aqueous solubility; conditions: water
[7] = Hydration/dehydration of free base forms on storage or under vacuum; conditions: for form change upon storage: storage at ambient conditions

SMILES: Cc1[nH]c2ccccc2c1CCNCc1ccc(/C=C/C(=O)NO)cc1 (racemic) [Form A of the DL-lactate salt, N-hydroxy-3-[4-[[[2-(2-methyl-1H-indol-3-yl)ethyl]amino]methyl]phenyl]-2E-2-propenamide]
form observed on equilibration ([1]; at 0° C. and 10° C. and in acetone/water mixture): observed along with form HA | relative stability of the form ([1]; in water and in most organic solvents): more stable than the other forms of the DL-lactate salt | form after equilibration at pH 1 and 2 [1]: the chloride salt is formed | form conversion under most circumstances [1]: does not convert into any other form | hygroscopicity [2]: slightly hygroscopic

SMILES: Cc1[nH]c2ccccc2c1CCNCc1ccc(/C=C/C(=O)NO)cc1 (racemic) [Form HA of the DL-lactate salt, N-hydroxy-3-[4-[[[2-(2-methyl-1H-indol-3-yl)ethyl]amino]methyl]phenyl]-2E-2-propenamide]
XRPD form after equilibration ([1]; Methanol): converts to form SA | form after equilibration at pH 1 and 2 [1]: the chloride salt is formed | form conversion under most circumstances [1]: slowly converts into form A | hygroscopicity [2]: slightly hygroscopic

SMILES: Cc1[nH]c2ccccc2c1CCNCc1ccc(/C=C/C(=O)NO)cc1 [Form A of the L-tartarate salt, N-hydroxy-3-[4-[[[2-(2-methyl-1H-indol-3-yl)ethyl]amino]methyl]phenyl]-2E-2-propenamide]
XRPD form after equilibration ([1]; 0.1 N HCl): chloride salt | XRPD form after equilibration ([1]; 2-Propanol): No change | XRPD form after equilibration ([1]; Acetone): Form C of the tartarate salt is obtained | XRPD form after equilibration ([1]; Acetone, listed as L-Tartarate): No change | XRPD form after equilibration ([1]; Ethanol): No change | XRPD form after equilibration ([1]; Ethyl Acetate): No change | XRPD form after equilibration ([1]; Methanol): converts to form C | XRPD form after equilibration ([1]; Methanol, listed as L-Tartarate): Changed to new | XRPD form after equilibration ([1]; pH = 6.8 buffer (phosphate)): free base | XRPD form after equilibration ([1]; water): No change | moisture at 85% r.h. ([3]; 85% r.h.): less than 0.5% | Sorption ([3]; Sample RH % 1.5): 0% | Sorption ([3]; Sample RH % 5): 0.04% | Desorption ([3]; Sample RH % 5): −0.09 | Sorption ([3]; Sample RH % 25): 0.11% | Desorption ([3]; Sample RH % 25): 0.03 | Sorption ([3]; Sample RH % 50): 0.2% | Desorption ([3]; Sample RH % 50): 0.16 | Sorption ([3]; Sample RH % 75): 0.31% | Desorption ([3]; Sample RH % 75): 0.36 | Sorption ([3]; Sample RH % 85): 0.35% | Desorption ([3]; Sample RH % 85): 0.42 | Sorption ([3]; Sample RH % 95): 0.49% | Desorption ([3]; Sample RH % 95): 0.49 | solubility in acetone, ethyl acetate and other common organic solvents ([4]; acetone, ethyl acetate and other common organic solvents): good solubility | solubility in alcohols ([4]; alcohols): limited solubility | intrinsic dissolution [5]: good | aqueous solubility [6]: 3500 µg/mL | hygroscopicity [2]: slightly hygroscopic

SMILES: Cc1[nH]c2ccccc2c1CCNCc1ccc(/C=C/C(=O)NO)cc1 [Form A of the acetate salt, N-hydroxy-3-[4-[[[2-(2-methyl-1H-indol-3-yl)ethyl]amino]methyl]phenyl]-2E-2-propenamide]
aqueous solubility [6]: ~2000 µg/mL

SMILES: Cc1[nH]c2ccccc2c1CCNCc1ccc(/C=C/C(=O)NO)cc1 [Form A of the benzoate salt, N-hydroxy-3-[4-[[[2-(2-methyl-1H-indol-3-yl)ethyl]amino]methyl]phenyl]-2E-2-propenamide]
aqueous solubility [6]: ~700 µg/mL

SMILES: Cc1[nH]c2ccccc2c1CCNCc1ccc(/C=C/C(=O)NO)cc1 [Form A of the hemi-fumarate salt, N-hydroxy-3-[4-[[[2-(2-methyl-1H-indol-3-yl)ethyl]amino]methyl]phenyl]-2E-2-propenamide]
aqueous solubility [6]: ~400 µg/mL

SMILES: Cc1[nH]c2ccccc2c1CCNCc1ccc(/C=C/C(=O)NO)cc1 [Form A of the hemi-malate salt, N-hydroxy-3-[4-[[[2-(2-methyl-1H-indol-3-yl)ethyl]amino]methyl]phenyl]-2E-2-propenamide]
aqueous solubility [6]: ~1400 µg/mL

SMILES: Cc1[nH]c2ccccc2c1CCNCc1ccc(/C=C/C(=O)NO)cc1 [Form A of the hemi-succinate salt, N-hydroxy-3-[4-[[[2-(2-methyl-1H-indol-3-yl)ethyl]amino]methyl]phenyl]-2E-2-propenamide]
aqueous solubility [6]: ~400 µg/mL

Second part, led by results:

aqueous solubility [6]: ~6000 µg/mL
SMILES: Cc1[nH]c2ccccc2c1CCNCc1ccc(/C=C/C(=O)NO)cc1 [Form A of the phosphate salt, N-hydroxy-3-[4-[[[2-(2-methyl-1H-indol-3-yl)ethyl]amino]methyl]phenyl]-2E-2-propenamide]

aqueous solubility [6]: ~4000 µg/mL
SMILES: Cc1[nH]c2ccccc2c1CCNCc1ccc(/C=C/C(=O)NO)cc1 [Form A of the propionate salt, N-hydroxy-3-[4-[[[2-(2-methyl-1H-indol-3-yl)ethyl]amino]methyl]phenyl]-2E-2-propenamide]

hygroscopicity [2]: visibly hygroscopic
SMILES: Cc1[nH]c2ccccc2c1CCNCc1ccc(/C=C/C(=O)NO)cc1 [Form A of the sulfate salt, N-hydroxy-3-[4-[[[2-(2-methyl-1H-indol-3-yl)ethyl]amino]methyl]phenyl]-2E-2-propenamide]

hygroscopicity [2]: hygroscopic
SMILES: Cc1[nH]c2ccccc2c1CCNCc1ccc(/C=C/C(=O)NO)cc1 [Form B of the tartarate salt, N-hydroxy-3-[4-[[[2-(2-methyl-1H-indol-3-yl)ethyl]amino]methyl]phenyl]-2E-2-propenamide]

XRPD form after equilibration ([1]; 2-Propanol): No change | XRPD form after equilibration ([1]; Acetone): No change | XRPD form after equilibration ([1]; Ethanol): Changed to new | XRPD form after equilibration ([1]; Ethyl Acetate): No change | XRPD form after equilibration ([1]; Methanol): Changed to new | XRPD form after equilibration ([1]; pH = 6.8 buffer (phosphate)): No change | XRPD form after equilibration ([1]; water): No change | Sorption ([3]; Sample RH % 1.5): 0% | Sorption ([3]; Sample RH % 5): 0.06% | Desorption ([3]; Sample RH % 5): 4.11 | Sorption ([3]; Sample RH % 25): 3.39% | Desorption ([3]; Sample RH % 25): 5.11 | Sorption ([3]; Sample RH % 50): 5.17% | Desorption ([3]; Sample RH % 50): 5.21 | Sorption ([3]; Sample RH % 75): 5.22% | Desorption ([3]; Sample RH % 75): 5.31 | Sorption ([3]; Sample RH % 85): 5.24% | Desorption ([3]; Sample RH % 85): 5.33 | Sorption ([3]; Sample RH % 95): 5.37% | Desorption ([3]; Sample RH % 95): 5.37
SMILES: Cc1[nH]c2ccccc2c1CCNCc1ccc(/C=C/C(=O)NO)cc1 [Free Base, N-hydroxy-3-[4-[[[2-(2-methyl-1H-indol-3-yl)ethyl]amino]methyl]phenyl]-2E-2-propenamide]

solubility in hot ethanol ([4]; listed as Form A): soluble
SMILES: Cc1[nH]c2ccccc2c1CCNCc1ccc(/C=C/C(=O)NO)cc1 [free base form A, N-hydroxy-3-[4-[[[2-(2-methyl-1H-indol-3-yl)ethyl]amino]methyl]phenyl]-2E-2-propenamide]

solubility in hot ethanol ([4]; listed as form B): insoluble
SMILES: Cc1[nH]c2ccccc2c1CCNCc1ccc(/C=C/C(=O)NO)cc1 [free base form B, N-hydroxy-3-[4-[[[2-(2-methyl-1H-indol-3-yl)ethyl]amino]methyl]phenyl]-2E-2-propenamide]

form change upon storage ([7]; listed as Form C): spontaneously rehydrate to form HA | form change upon storage ([7]; listed as form C): rehydrate back to form HA | solubility in hot ethanol-water mixture ([4]; hot ethanol-water mixture): soluble
SMILES: Cc1[nH]c2ccccc2c1CCNCc1ccc(/C=C/C(=O)NO)cc1 [free base form C, N-hydroxy-3-[4-[[[2-(2-methyl-1H-indol-3-yl)ethyl]amino]methyl]phenyl]-2E-2-propenamide]

solubility ([4]; ethanol, read-out: solubility in ethanol): ~1500 µg/mL (≈ 4.29 mM) | solubility ([4]; ethyl acetate, read-out: solubility in ethyl acetate): ~5600 µg/mL (≈ 16 mM) | solubility ([4]; methanol, read-out: solubility in methanol): ~2300 µg/mL (≈ 6.58 mM) | aqueous solubility [6]: approximately 0.004 mg/mL | hygroscopicity [2]: slightly hygroscopic
SMILES: Cc1[nH]c2ccccc2c1CCNCc1ccc(/C=C/C(=O)NO)cc1 [free base form HA, N-hydroxy-3-[4-[[[2-(2-methyl-1H-indol-3-yl)ethyl]amino]methyl]phenyl]-2E-2-propenamide]
form change under vacuum ([7]; under vacuum even at ambient temperature): completely dehydrates and converts to form C

hygroscopicity [2]: non-hygroscopic
SMILES: Cc1[nH]c2ccccc2c1CCNCc1ccc(/C=C/C(=O)NO)cc1 [white crystalline solid, N-hydroxy-3-[4-[[[2-(2-methyl-1H-indol-3-yl)ethyl]amino]methyl]phenyl]-2E-2-propenamide]

hygroscopicity [2]: very highly hygroscopic
SMILES: Cc1[nH]c2ccccc2c1CCNCc1ccc(/C=C/C(=O)NO)cc1 [yellow powder, N-hydroxy-3-[4-[[[2-(2-methyl-1H-indol-3-yl)ethyl]amino]methyl]phenyl]-2E-2-propenamide]
